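Test compounds were applied to cells in 96-well plates for 48 hours at 5 doses. Abbreviation: GI50, concentration required for 50% inhibition of growth. The concentration for full growth arrest is given as TGI.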
Experiments:
Test in all cases: NCI tumour cell line growth inhibition, 48 h
LOX IMVI melanoma = system: LOX IMVI melanoma
DMS 114 small cell lung = system: DMS 114 small cell lung
CAKI-1 renal = system: CAKI-1 renal
SNB-78 CNS = system: SNB-78 CNS
UO-31 renal = system: UO-31 renal
DMS 273 small cell lung = system: DMS 273 small cell lung
M19-MEL melanoma = system: M19-MEL melanoma
OVCAR-8 ovarian = system: OVCAR-8 ovarian
HOP-92 NSCLC = system: HOP-92 NSCLC
RXF 393 renal = system: RXF 393 renal
HOP-62 NSCLC = system: HOP-62 NSCLC
MALME-3M melanoma = system: MALME-3M melanoma

Compound	TGI (LOX IMVI melanoma) [µM]	TGI (DMS 114 small cell lung) [µM]	TGI (CAKI-1 renal) [µM]	TGI (SNB-78 CNS) [µM]	TGI (UO-31 renal) [µM]	TGI (DMS 273 small cell lung) [µM]	TGI (M19-MEL melanoma) [µM]	TGI (OVCAR-8 ovarian) [µM]	TGI (HOP-92 NSCLC) [µM]	TGI (RXF 393 renal) [µM]	TGI (HOP-62 NSCLC) [µM]	TGI (MALME-3M melanoma) [µM]	GI50 (LOX IMVI melanoma) [µM]	GI50 (CAKI-1 renal) [µM]	GI50 (UO-31 renal) [µM]	GI50 (OVCAR-8 ovarian) [µM]	GI50 (MALME-3M melanoma) [µM]	GI50 (HOP-92 NSCLC) [µM]	GI50 (RXF 393 renal) [µM]	GI50 (HOP-62 NSCLC) [µM]
O=C1c2ccccc2C(=O)N1CCN(CCN1C(=O)c2ccccc2C1=O)Cn1cccn1	> 100	38.3	> 100	> 100	> 100	> 100	> 100	> 100	> 100	> 100	> 100									
O=C1CCC2CC(C(=O)c3ccccc3)CCC2CN1 (configuration not stated) (tested in a mixture with another compound)		> 100	> 100	> 100	> 100	> 100	> 100	> 100		> 100	> 100	> 100								
COC(=O)C(CC(C)C)NC(=O)NC12CC3CC(CC(F)(C3)C1)C2 (configuration not stated)	> 100	> 100		> 100	> 100		> 100	> 100	> 100	> 100	> 100	> 100								
COC(=O)C(C(=O)C(=O)Nc1nc(=S)[nH][nH]1)c1csc(-n2nc(-c3ccccc3)cc2-c2ccccc2)n1 (configuration not stated)	> 100		> 100	> 100	> 100	> 100	> 100	> 100	> 100	> 100	> 100	> 100								
O=C(O)C[C@H]1CCCCC12CCOC2=O (some centres not stated)	> 100	> 100	> 100	> 100	> 100	> 100	> 100	> 100	> 100	> 100	> 100									
O=C(c1ccccc1)[C@H]1Nc2ccc(Cl)cc2C2c3ccccc3CC21 (some centres not stated)	> 100	> 100	> 100	> 100	> 100	> 100	> 100	> 100		45.4	> 100									
Cc1cc2c(cc1C)[n+](=O)c(C(=O)C/C(=N/OCCCc1ccccc1)C(=O)Nc1cc(Cl)ccc1Cl)c(C)n2[O-]	> 100		> 100	> 100		> 100	> 100	> 100		> 100	> 100	> 100								
COc1c(C(=O)c2ccc([N+](=O)[O-])cc2)cc(C(C)(C)C)cc1C(C)(C)C	27.7	73.1	> 100	> 100	> 100	> 100	> 100	> 100		62.2	> 100	> 100								
COC(=O)/C(=N\Nc1nc(=S)[nH]n1N)C(C#N)c1ccccc1 (configuration not stated)	> 100			> 100	> 100		> 100	> 100		> 100	> 100	> 100								
CC(=O)Nc1cc(N(CCOS(C)(=O)=O)CCOS(C)(=O)=O)ccc1N=O		> 100	> 100		> 100	> 100	> 100	> 100	> 100		> 100	> 100								
CCOC(=O)C1C2CCC(C2)C1(CCl)C(=O)OCC (configuration not stated)	> 100	> 100	> 100		> 100	> 100	> 100	> 100	> 100		> 100	> 100								
Nc1nc(OCc2cc(Br)cs2)c2[nH]cnc2n1	98.1		79.6		60.4			> 100	37	55.5	> 100	97.5	25.3	9.94	11.1	33.3	17.6	3.11	14	31.4
Cc1ccc(C(SCC(N)C(=O)O)(c2ccc(C)cc2)c2ccc(C)cc2)cc1 (configuration not stated)	20.2		12.5		40.4			17.4	17.5	14.8	22.3	26	7.16	2.74	9.79	2.36	11.6	2.87	1.46	6.52
CC1COc2c(N3CCN(C)CC3)c(F)cc3c(=O)c(C(=O)O)cn1c23 (configuration not stated)	> 100		> 100		> 100			> 100	> 100	> 100	> 100	> 100	> 100	> 100	47.5	> 100	> 100	0.478	> 100	> 100
O=[N+]([O-])c1ccccc1N/N=C\c1c[nH]c2ccccc12	> 47.6		> 100		> 65.9			29.4	49.2	57.8	31.1	> 87.1	8.81	3.93	0.658	12	28.8	4.45	10.7	13.8
N#Cc1c2c(c(N=P(c3ccccc3)(c3ccccc3)c3ccccc3)n3c1nc1ccccc13)CCCC2	76.3	59.4	> 100	97.3	79.4	56.1	67.8	> 100		98.5	71.5	> 100								
CN(C)c1ccc(N=C2C=CC(=[N+](C)C)C=C2)cc1	22.1		41.8		47.6			> 100	74.4	> 100	> 100	38.6	3.86	12.1	11.3	4.51	8.97	5.17	23.4	4.21
CC(C)(C)C(=O)OCOP(=O)(OCOC(=O)C(C)(C)C)C1CC(O)N(O)C1=O (configuration not stated)	> 100		> 100		37.6			> 100	8.99	7.71	26.8	> 100	3.35	4.87	2.92	4.73	2.82	1.84	2.37	5.28
